# Test results reported in patent US11267812B2 (Mirati Therapeutics, Inc., priority 2016, dated 2022).
# Test system: Phospho-ERK in NCI-H358 cells expressing KRas G12C
# Test: Cellular inhibition of KRas G12C by Phospho-ERK measurement in NCI-H358 cells
# Format: cell-based
# Conditions: Homo sapiens; NCI-H358 cells, 3 hours compound treatment; read-out: IC50 (pERK(Thr202/Tyr204) normalized with GAPDH)
# Description: The cellular inhibition of KRAs G12C by exemplary compounds of the present invention was determined by measuring the amount of a downstream marker of KRas activity, phosphorylated ERK (“Phospho-ERK”).
# NCI-H358 cells (ATCC CRL-5807) express KRas G12C and were grown in RPMI medium supplemented with 10% fetal bovine serum, penicillin/streptomycin and 10 mM HEPES. Cells were plated in poly-D-Lysine coated 96-well plates at a concentration of 50,000 cells/well and allowed to attach for 8-12 hours. Diluted compounds were then added at a final concentration of 0.5% DMSO. After 3 hours, the medium was removed, 150 μL of 4% formaldehyde was added and the plates were incubated for 20 minutes. The plates were washed with PBS, and permeabilized using 150 μL of ice cold 100% methanol for 10 minutes. Non-specific antibody binding to the plates was blocked using 100 μL Licor Blocking Buffer (Li-Cor Biotechnology, Lincoln Nebr.) for 1 hour at room temperature. Positive control samples and samples lacking cells were parallel processed with test samples as standards.
# The amount Phospho-ERK was determined using an antibody specific for the phosphorylated form of ERK and compared to the amount of GAPDH. Primary antibodies used for detection were added as follows: Phospho-ERK (Cell Signaling cs9101) diluted 1:500 and GAPDH (Millipore MAB374) diluted 1:5000 in Licor block+0.05% Tween 20. The plates were incubated for 2 hours at room temperature. The plates were washed with PBS+0.05% Tween 20.
# Secondary antibodies used to visualize primary antibodies were added as follows: Anti-rabbit-680 diluted 1:1000 and Anti-mouse-800 diluted 1:1000 in Licor Block+0.050 Tween 20 and incubated for 1 hour at room temperature. The plates were washed with PBS+0.05% o Tween 20. A100 L aliquot of PBS was added to each well and the plates were read on a LICOR AERIUS plate reader.
# The pERK(Thr202/Tyr204) signal was normalized with the GAPDH signal and percent of DMSO control values were calculated. IC50 values were generated using a 4 parameter fit of the dose response curve. Key: “A”≥0.001-≤1 μM; “B”[…] and ND=not determined.
row,Compound,IC50
1,"C=CC(=O)N1CCN(c2nc(OC[C@@H]3COCCN3C)nc3c2CCN(c2cccc4ccccc24)C3)CC1CC#N (stereo partly drawn) [Example 272, 2-(1-acryloyl-4-(2-(((S)-4-methylmorpholin-3-yl)methoxy)-7-(naphthalen-1-yl)-5,6,7,8-tetrahydropyrido[3,4-d]pyrimidin-4-yl)piperazin-2-yl)acetonitrile]",1 to 1000 nM
2,"C=CC(=O)N1CCN(c2nc(OC[C@@H]3CCCN3C)nc3c2CCN(c2cccc(C)c2C)C3)CC1CC#N (stereo partly drawn) [Example 228, 2-(1-acryloyl-4-(7-(2,3-dimethylphenyl)-2-(((S)-1-methylpyrrolidin-2-yl)methoxy)-5,6,7,8-tetrahydropyrido[3,4-d]pyrimidin-4-yl)piperazin-2-yl)acetonitrile]",1 to 1000 nM
3,"C=CC(=O)N1CCN(c2nc(OC[C@@H]3CN(C)CCN3)nc3c2CCN(c2cccc4ccccc24)C3)CC1CC#N (stereo partly drawn) [Example 223, 2-(1-acryloyl-4-(2-(((S)-4-methylpiperazin-2-yl)methoxy)-7-(naphthalen-1-yl)-5,6,7,8-tetrahydropyrido[3,4-d]pyrimidin-4-yl)piperazin-2-yl)acetonitrile]",1 to 1000 nM
4,"C=CC(=O)N1CCN(c2nc(OCCN3CCCC[C@@H]3C)nc3c2CCN(c2cc(O)cc4ccccc24)C3)CC1 [Example 88, (S)-1-(4-(7-(3-hydroxynaphthalen-1-yl)-2-(2-(2-methylpiperidin-1-yl)ethoxy)-5,6,7,8-tetrahydropyrido[3,4-d]pyrimidin-4-yl)piperazin-1-yl)prop-2-en-1-one]",1 to 1000 nM
5,"C=CC(=O)N1CCN(c2nc(OCCN3CCCC[C@H]3C)nc3c2CCN(c2cc(O)cc4ccccc24)C3)CC1 [Example 97, (R)-1-(4-(7-(3-hydroxynaphthalen-1-yl)-2-(2-(2-methylpiperidin-1-yl)ethoxy)-5,6,7,8-tetrahydropyrido[3,4-d]pyrimidin-4-yl)piperazin-1-yl)prop-2-en-1-one]",1 to 1000 nM
6,"C=CC(=O)N1CCN(c2nc(OCCCN3CCN(C)CC3)nc3c2CCN(c2cc(O)cc4ccccc24)C3)CC1 [Example 82, 1-(4-(7-(3-hydroxynaphthalen-1-yl)-2-(3-(4-methylpiperazin-1-yl)propoxy)-5,6,7,8-tetrahydropyrido[3,4-d]pyrimidin-4-yl)piperazin-1-yl)prop-2-en-1-one]",1 to 1000 nM
7,"C=CC(=O)N1CCN(c2nc(OC[C@@H]3CCCN3C)nc3c2CCN(c2cccc(C)c2C(F)(F)F)C3)CC1CC#N (stereo partly drawn) [Example 265, 2-(1-acryloyl-4-(7-(3-methyl-2-(trifluoromethyl)phenyl)-2-(((S)-1-methylpyrrolidin-2-yl)methoxy)-5,6,7,8-tetrahydropyrido[3,4-d]pyrimidin-4-yl)piperazin-2-yl)acetonitrile]",1 to 1000 nM
8,"C=CC(=O)N1CCN(c2nc(OC[C@@H]3C[C@@H](O)CN3C)nc3c2CCN(c2cccc4ccccc24)C3)CC1CC#N (stereo partly drawn) [Example 218, 2-(1-acryloyl-4-(2-(((2S,4R)-4-hydroxy-1-methylpyrrolidin-2-yl)methoxy)-7-(naphthalen-1-yl)-5,6,7,8-tetrahydropyrido[3,4-d]pyrimidin-4-yl)piperazin-2-yl)acetonitrile]",1 to 1000 nM
9,"C=CC(=O)N1CCN(c2nc(OCCCN3C[C@@H]4C[C@H]3CO4)nc3c2CCN(c2cc(O)cc4ccccc24)C3)CC1 [Example 104, 1-(4-(2-(3-((1S,4S)-2-oxa-5-azabicyclo[2.2.1]heptan-5-yl)propoxy)-7-(3-hydroxynaphthalen-1-yl)-5,6,7,8-tetrahydropyrido[3,4-d]pyrimidin-4-yl)piperazin-1-yl)prop-2-en-1-one]",1 to 1000 nM
10,"C=CC(=O)N1CCN(c2nc(OCC3CCN(C4CCCCC4)C3)nc3c2CCN(c2cc(O)cc4ccccc24)C3)CC1 (stereo not shown) [Example 132, 1-[4-[2-[(1-cyclohexylpyrrolidin-3-yl)methoxy]-7-(3-hydroxy-1-naphthyl)-6,8-dihydro-5H-pyrido[3,4-d]pyrimidin-4-yl]piperazin-1-yl]prop-2-en-1-one]",1 to 1000 nM
11,"C=CC(=O)N1CCN(c2nc(OC[C@@H]3CCN(C)C3)nc3c2CCN(c2cc(O)cc4ccccc24)C3)CC1 [Example 110, (R)-1-(4-(7-(3-hydroxynaphthalen-1-yl)-2-((1-methylpyrrolidin-3-yl)methoxy)-5,6,7,8-tetrahydropyrido[3,4-d]pyrimidin-4-yl)piperazin-1-yl)prop-2-en-1-one]",1 to 1000 nM
12,"C=CC(=O)N1CCN(c2nc(OCCCN3CCCOCC3)nc3c2CCN(c2cc(O)cc4ccccc24)C3)CC1 [Example 101, 1-(4-(2-(3-(1,4-oxazepan-4-yl)propoxy)-7-(3-hydroxynaphthalen-1-yl)-5,6,7,8-tetrahydropyrido[3,4-d]pyrimidin-4-yl)piperazin-1-yl)prop-2-en-1-one]",1 to 1000 nM
13,"C=CC(=O)N1CCN(c2nc(O[C@H](C)CN(C)C)nc3c2CCN(c2c(C)ccc4[nH]ncc24)C3)CC1CC#N (stereo partly drawn) [Example 152, 2-[4-[2-[(1R)-2-(dimethylamino)-1-methyl-ethoxy]-7-(5-methyl-1H-indazol-4-yl)-6,8-dihydro-5H-pyrido[3,4-d]pyrimidin-4-yl]-1-prop-2-enoyl-piperazin-2-yl]acetonitrile]",1 to 1000 nM
14,"C=CC(=O)N1CCN(c2nc(OCC3CCN(C4CC4)C3)nc3c2CCN(c2cc(O)cc4ccccc24)C3)CC1 (stereo not shown) [Example 190, 1-(4-(2-((1-cyclopropylpyrrolidin-3-yl)methoxy)-7-(3-hydroxynaphthalen-1-yl)-5,6,7,8-tetrahydropyrido[3,4-d]pyrimidin-4-yl)piperazin-1-yl)prop-2-en-1-one]",1 to 1000 nM
15,"C=CC(=O)N1CCN(c2nc(OC[C@@H]3CCCN3C)nc3c2CCN(c2cccc4cc(F)ccc24)C3)CC1CC#N (stereo partly drawn) [Example 259, 2-[4-[7-(6-fluoro-1-naphthyl)-2-[[(2S)-1-methylpyrrolidin-2-yl]methoxy]-6,8-dihydro-5H-pyrido[3,4-d]pyrimidin-4-yl]-1-prop-2-enoyl-piperazin-2-yl]acetonitrile]",1 to 1000 nM
16,"C=CC(=O)N1CCN(c2nc(OC[C@@H]3CCCN3C)nc3c2CCN(c2ccccc2Cl)C3)CC1CC#N (stereo partly drawn) [Example 229, 2-(1-acryloyl-4-(7-(2-chlorophenyl)-2-(((S)-1-methylpyrrolidin-2-yl)methoxy)-5,6,7,8-tetrahydropyrido[3,4-d]pyrimidin-4-yl)piperazin-2-yl)acetonitrile]",1 to 1000 nM
17,"C=CC(=O)N1CCN(c2nc(OCCCN3CCOCC3)nc3c2CCN(c2cc(O)ccc2OC(F)(F)F)C3)CC1 [Example 90, 1-(4-(7-(5-hydroxy-2-(trifluoromethoxy)phenyl)-2-(3-morpholinopropoxy)-5,6,7,8-tetrahydropyrido[3,4-d]pyrimidin-4-yl)piperazin-1-yl)prop-2-en-1-one]",1 to 1000 nM
18,"C=CC(=O)N1CCN(c2nc(OCC3CN(C)CCO3)nc3c2CCN(c2cc(O)cc4ccccc24)C3)CC1 (stereo not shown) [Example 193, 1-(4-(7-(3-hydroxynaphthalen-1-yl)-2-((4-methylmorpholin-2-yl)methoxy)-5,6,7,8-tetrahydropyrido[3,4-d]pyrimidin-4-yl)piperazin-1-yl)prop-2-en-1-one]",1 to 1000 nM
19,"C=CC(=O)N1CCN(c2nc(OC[C@@H]3CCCN3C)nc3c2CCN(c2c(F)cccc2C(F)(F)F)C3)CC1CC#N (stereo partly drawn) [Example 275, 2-(1-acryloyl-4-(7-(2-fluoro-6-(trifluoromethyl)phenyl)-2-(((S)-1-methylpyrrolidin-2-yl)methoxy)-5,6,7,8-tetrahydropyrido[3,4-d]pyrimidin-4-yl)piperazin-2-yl)acetonitrile]",1 to 1000 nM
20,"C=CC(=O)N1CCN(c2nc(O[C@H](C)CN(C)C)nc3c2CCN(c2cc(O)cc4ccccc24)C3)CC1CC#N (stereo partly drawn) [Example 150, 2-(1-acryloyl-4-(2-(((R)-1-(dimethylamino)propan-2-yl)oxy)-7-(3-hydroxynaphthalen-1-yl)-5,6,7,8-tetrahydropyrido[3,4-d]pyrimidin-4-yl)piperazin-2-yl)acetonitrile]",1 to 1000 nM
21,"C=CC(=O)N1CCN(c2nc(OC[C@@H]3CCCN3C)nc3c2CCN(c2cc(F)ccc2OC(F)(F)F)C3)CC1CC#N (stereo partly drawn) [Example 225, 2-(1-acryloyl-4-(7-(5-fluoro-2-(trifluoromethoxy)phenyl)-2-(((S)-1-methylpyrrolidin-2-yl)methoxy)-5,6,7,8-tetrahydropyrido[3,4-d]pyrimidin-4-yl)piperazin-2-yl)acetonitrile]",1 to 1000 nM
22,"C=CC(=O)N1CCN(c2nc(OCCN3CCCCC3)nc3c2CCN(c2cc(O)cc4ccccc24)C3)CC1 [Example 52, 1-[4-[7-(3-hydroxy-1-naphthyl)-2-[2-(1-piperidyl)ethoxy]-6,8-dihydro-5H-pyrido[3,4-d]pyrimidin-4-yl]piperazin-1-yl]prop-2-en-1-one]",1 to 1000 nM
